Laboratory results reported in US20250019379A1, “NEW CRYSTAL FORM OF COMPOUND, AND PREPARATION METHOD THEREFOR AND USE THEREOF” (E-nitiate Biopharmaceuticals (Hangzhou) Co., Ltd, priority 2021, published 2025).

Assays:
[1] = Suspension competition experiment; format: physicochemical; conditions: compared with crystalline form O and crystalline form P; room temperature and 60° C.
Protocol: Place them at room temperature and 60° C. with magnetic stirring for about 1 hour respectively. […] Solids are used for XRPD testing.

[2] = Dynamic solubility in biological solvents at 37° C.; format: physicochemical
Protocol: (1) Preparation method of FaSSIF: a. Weigh 42 mg NaOH, 395 mg NaH2PO4·H2O and 619 mg NaCl in a 100 mL beaker, add 90 mL deionized water to dissolve: b. Adjust the pH to […]; Dilute to 100 mL with deionized water to obtain FaSSIF blank solvent: c. Weigh 224 mg of Simulated Intestinal Fluid (hereinafter referred to as SIF powder), add 50 mL of the above FaSSIF blank solvent, and stir until completely dissolved; use Dilute the FaSSIF blank solvent to 100 mL to prepare the solvent FaSSIF; d. Let it stand at room temperature for 2 hours before use.
(2) Preparation method of FeSSIF: a. Weigh 404 mg NaOH, 865 mg glacial acetic acid and 1189 mg NaCl in a 100 mL beaker, add 90 mL deionized water to dissolve: b. Adjust the pH to 5.0 with 1N NaOH or 1N HCl; Dilute to 100 mL with deionized water to obtain FeSSIF blank solvent; c. Weigh 1120 mg SIF powder and add 50 mL of the above FeSSIF blank solvent, stir until dissolved: dilute to 100 mL with FeSSIF blank solvent to obtain FeSSIF solvent d. Let it stand at room temperature before use to ensure a clear solution.
(3) Preparation method of SGF: a. Weigh 200 mg NaCl in a 100 mL beaker, add 90 mL deionized water to dissolve; b. Adjust the pH to 1.6 with 1N HCl; dilute to 100 mL with deionized water to obtain SGF Blank solvent; c. Weigh 6 mg SIF powder and add 50 mL of the above SGF blank solvent, stir until dissolved: dilute to 100 mL with SGF blank solvent to prepare the solvent SGF: d. Let it stand at room temperature before use to ensure a clear solution.
(100 rpm). Take 1.3 mL of the suspension (or clarified solution) respectively at 1, 4, and 24 hours, and centrifuge the suspension for 5 minutes. The solid obtained is used for crystal form detection (XRPD), and the supernatant/clarified solution is filtered for solubility testing and pH test.
Solubility data of the samples were collected using a high-performance liquid chromatograph equipped with an image diode array detector.

[3] = Solid state stability (HPLC purity, XRPD); format: physicochemical; conditions: for Purity (%): open
Protocol: Purity testing (via HPLC) and crystal form detection (via XRPD) were performed on starting samples, samples stored for one week, and samples stored for two weeks.

[4] = Pharmacokinetic experiment; format: in vivo; conditions: SD rats, single intragastric administration
Protocol: 12 SD rats were divided into two groups, with 6 rats in each group, half male and half female, and each was given a single intragastric administration; blood was collected through the fundus venous plexus at designated time points, and the plasma was separated and stored in a −80° C. refrigerator.
For the above plasma sample, after protein precipitation with acetonitrile, the supernatant was diluted with water and 5 μL was transferred to LC-MS/MS for detection.

- stability in suspension competition [1]: more stable
- Changes in Crystal form ([2]; FaSSIF, 37° C., 1 h): no change
- pH ([2]; FaSSIF, 37° C., 1 h): 6.41
- pH ([2]; FaSSIF, 37° C., 4 h): 6.49
- Changes in Crystal form ([2]; FaSSIF, 37° C., 24 h): no change
- pH ([2]; FaSSIF, 37° C., 24 h): 6.54
- Changes in Crystal form ([2]; FeSSIF, 37° C., 1 h): no change
- pH ([2]; FeSSIF, 37° C., 1 h): 4.92
- pH ([2]; FeSSIF, 37° C., 4 h): 4.95
- Changes in Crystal form ([2]; FeSSIF, 37° C., 24 h): no change
- pH ([2]; FeSSIF, 37° C., 24 h): 4.99
- Changes in Crystal form ([2]; SGF, 37° C., 1 h): no change
- pH ([2]; SGF, 37° C., 1 h): 2.92
- pH ([2]; SGF, 37° C., 4 h): 2.99
- Changes in Crystal form ([2]; SGF, 37° C., 24 h): no change
- pH ([2]; SGF, 37° C., 24 h): 2.95
- crystal form stability when suspended and stirred ([2]; SGF/FeSSIF/FeSSIF, 24 hours, 37° C.): stable
- solubility in three solvents (SGF/FaSSIF/FeSSIF), comparison ([2]; within 24 hours at 37° C.): greater than that of crystalline form Q
- solid-state stability (conclusion) [3]: good solid-state stability
- Purity (%) ([3]; 1 week, 25° C./60% RH): 99.64%
- Purity (%) ([3]; 1 week, 40° C./75% RH): 99.62%
- Purity (%) ([3]; 1 week, 60° C.): 99.62%
- Crystal form changes ([3]; 1 week, 25° C./60% RH, 40° C./75% RH, 60° C.): no change
- Purity (%) ([3]; 2 week, 25° C./60% RH): 99.60%
- Purity (%) ([3]; 2 week, 40° C./75% RH): 99.60%
- Purity (%) ([3]; 2 week, 60° C.): 99.66%
- Crystal form changes ([3]; 2 week, 25° C./60% RH, 40° C./75% RH, 60° C.): no change
- change in the crystalline form (XRPD) ([3]; after one week and two weeks of storage under the selected conditions): no change
- change in purity ([3]; after one week and two weeks under the selected conditions): no significant change
- Starting sample Purity (%) ([3]; starting sample): 99.59%
- bioavailability in the body [4]: high bioavailability
SMILES: C[C@@H](O)c1nc2cnc3[nH]ccc3c2n1N1CCC(CC#N)CC1 [Crystalline form A, (R)-2-(1-(2-(1-hydroxyethyl)imidazo[4,5-d]pyrrolo[2,3-b]pyridine-1(6H)-yl)piperidin-4-yl)acetonitrile]
